16 molecules from US5192760A, “3-carbalkoxyamino-5-(alpha-aminopropionyl)-5H-dibenz[b,f]azepines and method for their making” (priority 1989, dated 1993) can be followed below.

The nature of series [1]: in vivo. Also on record: species or system male or female Wistar rats. The following applies: Wistar rat, iv. in tail vein, p=0.05 confidence interval in parentheses. The text has this: LD50 iv. is the lethal dose in mg/kg body weight for 50% of the experimental animals of an orientating acute toxicity test on male or female Wistar rats of our own breed, iv. administration in the tail vein, 3-4 dosages, 10 animals per group. Data analyzed by the Probit regression analysis with a confidence interval of p=0.05 (values in parentheses).

Series [2] is described as follows: in vivo. The following applies: in vivo. In kind it is in vivo, female Wistar rats. Here is the method: (§1) ED73 iv. and po. are the dose in mg/kg, body weight which inhibits aconitine in female Wistar rats after iv. or po. administration of the test substance up to the occurrence of isolated ventricular extrasystolae. The procedure is also described by K. Femmer et al., in Pharmazie, vol. 31, page 36 (1976). The test substances are administered 2 minutes before the aconitine if given iv., and 60 minutes before the aconitine if given orally. The data is analyzed by the Probit regression analysis with a confidence interval of p=0.05 (values in parentheses).
(§2) Q1 is the ratio of […]. to determine the absorption, and Q2 is the ratio of LD50 iv. /ED73 iv. to determine the therapeutic breadth.

The next series deals with Aconitine (rat). Put plainly: animal or person. In kind it is in vivo, female Wistar rats. The following applies: Rattus norvegicus. As for the experimental part:
as §1, §2

The mark [3] stands for this setting: ratio of ED73 po. to ED73 iv., rat aconitine, read-out: Q1 (ED73 po. /ED73 iv.), absorption ratio.
Where [4] appears, read: ratio of LD50 iv. to ED73 iv., rat, read-out: Q2 (LD50 iv. /ED73 iv.), therapeutic breadth.

Read-outs that look alike come from different tables or passages of the source.

With `CCNC(C)C(=O)N1c2ccccc2C=Cc2ccc(NC(=O)OCC)cc21` (stereo not drawn) [compound 11], the LD50 in “in vivo [1]” was determined as 14 mg/kg. In addition, the selectivity ratio in the series “in vivo [2]” (setting [3]) and in “in vivo [2]” (setting [4]) was 18 each time. Besides, the ED73 is 0.8 mg/kg in the series with Aconitine (rat) (iv, read-out: ED73 iv.) and 14 mg/kg in the series with Aconitine (rat) (po, read-out: ED73 p.o.).

Turning to `CCNC(C)C(=O)N1c2ccccc2CCc2ccc(NC(=O)OC(C)C)cc21` (stereo not drawn) [compound 7], in the series “in vivo [1]”, the LD50 came to 10 mg/kg. Besides, the selectivity ratio is 61 in the series “in vivo [2]” (setting [3]) and 30 in the series “in vivo [2]” (setting [4]). The ED73 in the series on Aconitine (rat) (iv, read-out: ED73 iv.) was 0.33 mg/kg; in the series with Aconitine (rat) (po, read-out: ED73 p.o.), 20 mg/kg.

Consider `CCOC(=O)Nc1ccc2c(c1)N(C(=O)C(C)NC)c1ccccc1C=C2` (stereo not drawn) [compound 10], for which, in the series “in vivo [1]”, the 50% lethal dose (LD50) turned out to be 14 mg/kg. The selectivity ratio in the series “in vivo [2]” (setting [3]) came out at 6.5; in “in vivo [2]” (setting [4]), 19. Further, the ED73 in the series with Aconitine (rat) (iv, read-out: ED73 iv.) is 0.75 mg/kg; in the series with Aconitine (rat) (po, read-out: ED73 p.o.), 4.9 mg/kg.

Regarding `CCOC(=O)Nc1ccc2c(c1)N(C(=O)C(C)N(CC)CC)c1ccccc1CC2` (stereo not drawn) [Test No. 2], the LD50 in the series “in vivo [1]” was determined as 12 mg/kg. The selectivity ratio in the series “in vivo [2]” (setting [3]) and in “in vivo [2]” (setting [4]) was 9 each time. Moreover, the ED73 in the series on Aconitine (rat) (iv, read-out: ED73 iv.) turned out to be 1.3 mg/kg; in the series on Aconitine (rat) (po, read-out: ED73 p.o.), 11 mg/kg.

Turning to `CNC(C)C(=O)N1c2ccccc2CCc2ccc(NC(=O)OC(C)C)cc21` (stereo not drawn) [compound 6], the LD50 in “in vivo [1]” was found to be 21 mg/kg. Also, the selectivity ratio in the series “in vivo [2]” (setting [3]) came to 22; in “in vivo [2]” (setting [4]), 38. In addition, the ED73 with Aconitine (rat) (iv, read-out: ED73 iv.) was 0.55 mg/kg; in the series with Aconitine (rat) (po, read-out: ED73 p.o.), 12 mg/kg.

Take `CCOC(=O)Nc1ccc2c(c1)N(C(=O)CN(C)C)c1ccccc1CC2` [Bonnecor, 3carbethoxyamino-5-dimethylaminoacetyl-10,11-dihydro-5H-dibenz[b,f,]azepine, reference compound]: the selectivity ratio in the series “in vivo [2]” (setting [3]) was 20; in the series “in vivo [2]” (setting [4]), 39. Further, the ED73 in the series on Aconitine (rat) (iv, read-out: ED73 iv.) came out at 0.28 mg/kg; in the series with Aconitine (rat) (po, read-out: ED73 p.o.), 5.7 mg/kg.

For `CCOC(=O)Nc1ccc2c(c1)N(C(=O)C(C)N1CCOCC1)c1ccccc1CC2` (stereo not drawn) [Test No. 3], in the series “in vivo [1]”, the LD50 is over 70 mg/kg. For the same molecule, in “in vivo [2]” (setting [4]), the selectivity ratio is about 2. Also, the ED73 was 47 mg/kg in the series on Aconitine (rat) (iv, read-out: ED73 iv.) and over 80 mg/kg in the series with Aconitine (rat) (po, read-out: ED73 p.o.).

As to `Cc1cccc(C)c1OCC(C)N` (stereo not drawn) [Mexiletin, reference compound], the median effective dose (ED50) in the series on Aconitine (rat) (iv, read-out: ED50 iv. (printed in the ED73 p.o. column)) was 91 mg/kg. In addition, the ED73 in the series on Aconitine (rat) (iv, read-out: ED73 iv.) was found to be 15 mg/kg.

As for `CNC(C)C(=O)N1c2ccccc2CCc2ccc(NC(=O)OC)cc21` (stereo not drawn) [compound 8], the LD50 in “in vivo [1]” came to 24 mg/kg. For the same molecule, the selectivity ratio in the series “in vivo [2]” (setting [3]) worked out at 16; in “in vivo [2]” (setting [4]), 28. In addition, the ED73 with Aconitine (rat) (iv, read-out: ED73 iv.) came to 0.86 mg/kg; with Aconitine (rat) (po, read-out: ED73 p.o.), 14 mg/kg.

`CCOC(=O)Nc1ccc2c(c1)N(C(=O)C(C)NC)c1ccccc1CC2` (stereo not drawn) [Test No. 4, 3-Carbethoxyamino-5-(α-methylaminopropionyl)-10,11-dihydro-5H-dibenz[b,f]-azepine]: the LD50 in “in vivo [1]” turned out to be 12 mg/kg. Further, the selectivity ratio in “in vivo [2]” (setting [3]) worked out at 158; in “in vivo [2]” (setting [4]), 100. In addition, the ED73 in the series on Aconitine (rat) (iv, read-out: ED73 iv.) worked out at 0.12 mg/kg; with Aconitine (rat) (po, read-out: ED73 p.o.), 19 mg/kg.

On to `CCOC(=O)Nc1ccc2c(c1)N(C(=O)C(C)N(C)C)c1ccccc1CC2` (stereo not drawn) [Test No. 1], for which, in the series “in vivo [1]”, the LD50 came to 20 mg/kg. In addition, the figures for the selectivity ratio in the series “in vivo [2]” (setting [3]) and in the series “in vivo [2]” (setting [4]) were 10 and 8, respectively. Further, the ED73 in the series on Aconitine (rat) (iv, read-out: ED73 iv.) came to 2.4 mg/kg; in the series with Aconitine (rat) (po, read-out: ED73 p.o.), 24 mg/kg.

As for `CCOC(=O)Nc1ccc2c(c1)N(C(=O)CCN1CCOCC1)c1ccccc1S2` [Moracizin, reference compound], the selectivity ratio in the series “in vivo [2]” (setting [3]) is 102; in “in vivo [2]” (setting [4]) it was 10. Moreover, the ED73 was determined as 1.1 mg/kg with Aconitine (rat) (iv, read-out: ED73 iv.) and 112 mg/kg with Aconitine (rat) (po, read-out: ED73 p.o.).

On to `COC(=O)Nc1ccc2c(c1)N(C(=O)C(C)NCCO)c1ccccc1CC2` (stereo not drawn) [compound 9], for which the LD50 in the series “in vivo [1]” was 55 mg/kg. Further, the selectivity ratio in the series “in vivo [2]” (setting [4]) stood at 14. Further, the ED73 in the series with Aconitine (rat) (iv, read-out: ED73 iv.) was 4 mg/kg.

As for `CCOC(=O)Nc1ccc2c(c1)N(C(=O)C(C)N)c1ccccc1CC2` (stereo not drawn) [compound 13], the LD50 in “in vivo [1]” stood at 21 mg/kg. The selectivity ratio in the series “in vivo [2]” (setting [3]) is 45; in the series “in vivo [2]” (setting [4]), 68. Moreover, the ED73 in the series on Aconitine (rat) (iv, read-out: ED73 iv.) worked out at 0.31 mg/kg; with Aconitine (rat) (po, read-out: ED73 p.o.) it was 14 mg/kg.

In the case of `CCNC(C)C(=O)N1c2ccccc2CCc2ccc(NC(=O)OCC)cc21.Cl` (stereo not drawn) [Test No. 5, 3-carbethoxyamino-5-(α-ethylaminopropionyl)-10,11-dihydro-5H-dibenz[b,f]azepine hydrochloride], the LD50 in the series “in vivo [1]” amounted to 9.3 mg/kg. Further, the selectivity ratio was found to be 44 in the series “in vivo [2]” (setting [3]) and 39 in the series “in vivo [2]” (setting [4]). For the same molecule, the ED73 with Aconitine (rat) (iv, read-out: ED73 iv.) is 0.16 mg/kg; with Aconitine (rat) (po, read-out: ED73 p.o.) it was 7 mg/kg.

Turning to `CCCNC(C)C(=O)N1c2ccccc2CCc2ccc(NC(=O)OCC)cc21` (stereo not drawn) [compound 12], in “in vivo [1]”, the 50% lethal dose (LD50) worked out at 2.5 mg/kg. Also, the selectivity ratio in “in vivo [2]” (setting [3]) amounted to 22; in “in vivo [2]” (setting [4]), 16. The ED73 in the series on Aconitine (rat) (iv, read-out: ED73 iv.) amounted to 0.16 mg/kg; in the series on Aconitine (rat) (po, read-out: ED73 p.o.), 3.5 mg/kg.

For orientation: LD50 means the dose at which mortality reaches 50%. As usually defined, the ED50 is the dose that gives a 50% effect, or the effect in half of the subjects.
